Results from patent US10676468B2, “N-(3-heteroarylaryl)-4-arylarylcarboxamides and analogs as hedgehog pathway inhibitors and use thereof” (IMPACT Therapeutics, Inc., priority 2012, dated 2020).
Where a name gives a salt, the structure may show the parent alone. Read-outs that look alike come from different tables or passages of the source.

Tested on: Hedgehog Signaling Pathway
Test: Gli-Luc reporter gene cell assay in C3H10T1/2/Gli-Luc cells stimulated with Shh
Assay type: cell-based, mouse
Details: 30 nM Shh, luciferase activity (RLU), read-out: IC50 values of compounds that inhibit Hh pathway
Text: The Application of Reporter Gene Cell Assay for the Determination of the Inhibitory Activity of N-(3-(1H-benzo[d]imidazol-2-yl)-4-chlorophenyl)-2-methyl-4-((2S,6R)-2,6-dimethylmorpholino) benzamide and Analogs on Hedgehog Signaling Pathway
The binding of Sonic hedgehog (Shh) to its receptor Patched 1 initiates numerous intracellular signal transmission, and leads to the nuclear translocation of Gli and the elevated transcription of Gli target genes. When C3H10T1/2 cells are stably transfected with the Gli-Luc plasmids containing the luciferase gene under the control of Gli response element and stimulated with Shh, the expression of luciferase is elevated. Luciferase activity is indicative of the hedgehog signaling pathway activity. Therefore, the inhibitory activity of compounds on hedgehog signaling pathway can be measured using the luciferase activity when the transfected cells are stimulated with Shh.
The day before experiment, C3H10T1/2/Gli-Luc cells in log phase of growth were seeded into 96 well plate at a density of 20000 cells per well. The cells were maintained in DMEM (Hyclone) supplemented with 10% FBS (Hyclone) and incubated at 37° C. with 5% CO2 overnight. The compounds to be examined were diluted into 7 different concentrations by series of dilutions (⅓ and 1/10), and the eighth point of concentration is the DMSO control. Those solutions were diluted 100-fold in the fresh growth medium. The cells were taken out of the incubator and the medium of cultured cells were removed. Then, each well was added in an orderly manner with 80 μL of fresh growth medium, 20 μL of medium pre-dilution of positive compound and compounds to be tested, as well as 100 μL of growth medium containing 30 nM of Shh. The cells are returned to the incubator, and incubated for 24 hours.
Measurement of luciferase activity: After taking the 96 well plate out of the incubator, the supernatants were discarded and the cells were washed twice with PBS. Thereafter, each well was dispensed with 20 μL of lysis buffer (Promega E1531), and the plate was shaken for 30 min at room temperature. Following transferring 5 μL of cell lysate into 384 well plate (Greiner 781074), adding 25 μL of luciferase reaction buffer (Promega E1501) into each well and mixing the plate, the relative light unit (RLU) was immediately captured by VarioSkan Flash.
The data were analyzed with Prism 5 software (GraphPad). The relative light unit (RLU) was plotted against the log concentration of testing compound, and the obtained plot was fitted with non-linear curve fitting equation to calculate IC50 values. The curve fitting equation is Y (RLU)=Bottom+(Top−Bottom)/(1+10^((X−Log IC50))). X is the logarithm of concentration. Y is the measure of relative light unit (RLU).
The calculated IC50 value is a measurement of the inhibitory activity of compound to Hh pathway.

`CCN1[C@H](C)CN(c2ccc(C(=O)Nc3ccc(Cl)c(-c4ncc(-c5ccco5)[nH]4)c3)c(Cl)c2)C[C@@H]1C` [Example 150, N-(3-(5-(furan-2-yl)-1H-imidazol-2-yl)-4-chlorophenyl)-2-chloro-4-((3S,5R)-4-ethyl-3,5-dimethylpiperazin-1-yl)benzamide] gave an IC50 (Mus musculus, C3H 10T1/2, 24 h) of 0.5 nM.

For `Cc1ccc(-c2cnc(-c3cc(NC(=O)c4ccc(N5C[C@@H](C)N(C)[C@@H](C)C5)cc4Cl)ccc3Cl)[nH]2)o1` [Example 151, N-(3-(5-(5-methylfuran-2-yl)-1H-imidazol-2-yl)-4-chlorophenyl)-2-chloro-4-((3S,5R)-3,4,5-trimethylpiperazin-1-yl)benzamide], the IC50 (Mus musculus, C3H 10T1/2, 24 h) was 2 nM.

In the case of `Cc1ccc(-c2cnc(-c3cc(NC(=O)c4ccc(N5C[C@@H](C)N(C)[C@@H](C)C5)cc4C)ccc3Cl)[nH]2)o1` [Example 152, N-(3-(5-(5-methylfuran-2-yl)-1H-imidazol-2-yl)-4-chlorophenyl)-2-methyl-4-((3S,5R)-3,4,5-trimethylpiperazin-1-yl)benzamide], the IC50 (Mus musculus, C3H 10T1/2, 24 h) is reported as 1.2 nM.

`Cc1cc(N2C[C@@H](C)N(C)[C@@H](C)C2)ccc1C(=O)Nc1ccc(Cl)c(-c2ncc(-c3cccn3C)[nH]2)c1` [Example 161, N-(3-(5-(1-methyl-1H-pyrrol-2-yl)-1H-imidazol-2-yl)-4-chlorophenyl)-2-methyl-4-((3S,5R)-3,4,5-trimethylpiperazin-1-yl)benzamide] was tested, and the IC50 (Mus musculus, C3H 10T1/2, 24 h) was 0.38 nM.

`C[C@@H]1CN(c2ccc(C(=O)Nc3ccc(Cl)c(-c4ncc(-c5cccn5C)[nH]4)c3)c(Cl)c2)C[C@H](C)N1C` [Example 162, N-(3-(5-(1-methyl-1H-pyrrol-2-yl)-1H-imidazol-2-yl)-4-chlorophenyl)-2-chloro-4-((3S,5R)-3,4,5-trimethylpiperazin-1-yl)benzamide] showed an IC50 (Mus musculus, C3H 10T1/2, 24 h) of 0.3 nM.

`C[C@@H]1CN(c2ccc(C(=O)Nc3ccc(Cl)c(-c4ncc(-c5ccsc5)[nH]4)c3)c(C(F)(F)F)c2)C[C@H](C)N1C` [Example 164, N-(3-(5-(thiophen-3-yl)-1H-imidazol-2-yl)-4-chlorophenyl)-2-(trifluoromethyl)-4-((3S,5R)-3,4,5-trimethylpiperazin-1-yl) benzamide Dihydrochloride] gave an IC50 (24 hours) of 0.24 nM.

In the case of `CCN1[C@H](C)CN(c2ccc(C(=O)Nc3ccc(Cl)c(-c4ncc(-c5ccsc5)[nH]4)c3)c(Cl)c2)C[C@@H]1C` [Example 165, N-(3-(5-(thiophen-3-yl)-1H-imidazol-2-yl)-4-chlorophenyl)-2-chloro-4-((3S,5R)-4-ethyl-3,5-dimethylpiperazin-1-yl)benzamide Dihydrochloride], the IC50 (Mus musculus, C3H 10T1/2, 24 h) is reported as 0.19 nM.

`CCc1cnc(-c2cc(NC(=O)c3ccc(N4C[C@@H](C)N(C)[C@@H](C)C4)cc3C(F)(F)F)ccc2Cl)[nH]1` [Example 167, N-(3-(5-ethyl-1H-imidazol-2-yl)-4-chlorophenyl)-2-(trifluoromethyl)-4-((3S,5R)-3,4,5-trimethylpiperazin-1-yl)benzamide] showed an IC50 (Mus musculus, C3H 10T1/2, 24 h) of 28 nM.

For `CCc1cnc(-c2cc(NC(=O)c3ccc(N4C[C@@H](C)N(C)[C@@H](C)C4)c(F)c3C)ccc2Cl)[nH]1` [Example 168, N-(3-(5-ethyl-1H-imidazol-2-yl)-4-chlorophenyl)-2-methyl-3-fluoro-4-((3S,5R)-3,4,5-trimethylpiperazin-1-yl)benzamide], the IC50 (Mus musculus, C3H 10T1/2, 24 h) was 0.38 nM.

Work on `CCc1cnc(-c2cc(NC(=O)c3ccc(N4C[C@@H](C)N(CC)[C@@H](C)C4)cc3Cl)ccc2Cl)[nH]1` [Example 169, N-(3-(5-ethyl-1H-imidazol-2-yl)-4-chlorophenyl)-2-chloro-4-((3S,5R)-4-ethyl-3,5-dimethylpiperazin-1-yl)benzamide] yielded an IC50 (Mus musculus, C3H 10T1/2, 24 h) of 0.67 nM.

Compound `CC(C)c1cnc(-c2cc(NC(=O)c3ccc(N4C[C@@H](C)N(C)[C@@H](C)C4)cc3C(F)(F)F)ccc2Cl)[nH]1` [Example 171, N-(3-(5-isopropyl-1H-imidazol-2-yl)-4-chlorophenyl)-2-(trifluoro-methyl)-4-((3S,5R)-3,4,5-trimethylpiperazin-1-yl)benzamide] has an IC50 (Mus musculus, C3H 10T1/2, 24 h) of 0.46 nM.

In the case of `Cc1cnc(-c2cc(NC(=O)c3ccc(N4C[C@@H](C)N(C)[C@@H](C)C4)cc3C)ccc2Cl)[nH]1` [Example 186, N-(3-(5-methyl-1H-imidazol-2-yl)-4-chlorophenyl)-2-methyl-4-((3S,5R)-3,4,5-trimethylpiperazin-1-yl)benzamide Dihydrochloride], the IC50 (Mus musculus, C3H 10T1/2, 24 h) is reported as 3.4 nM.

Compound `CCc1cnc(-c2cc(NC(=O)c3ccc(N4C[C@@H](C)N(C)[C@@H](C)C4)cc3C)ccc2Cl)[nH]1` [Example 187, N-(3-(5-ethyl-1H-imidazol-2-yl)-4-chlorophenyl)-2-methyl-4-((3S,5R)-3,4,5-trimethylpiperazin-1-yl)benzamide Dihydrochloride] has an IC50 (Mus musculus, C3H 10T1/2, 24 h) of 0.45 nM.

`CCc1cnc(-c2cc(NC(=O)c3ccc(N4C[C@@H](C)N(C)[C@@H](C)C4)cc3Cl)ccc2Cl)[nH]1` [Example 188, N-(3-(5-ethyl-1H-imidazol-2-yl)-4-chlorophenyl)-2-chloro-4-((3S,5R)-3,4,5-trimethylpiperazin-1-yl)benzamide Dihydrochloride] was tested, and the IC50 (Mus musculus, C3H 10T1/2, 24 h) was 1 nM.

In the case of `Cc1c(C(=O)Nc2ccc(Cl)c(-c3ncc(C(C)C)[nH]3)c2)ccc(N2C[C@@H](C)N(C)[C@@H](C)C2)c1F` [Example 190, N-(3-(5-isopropyl-1H-imidazol-2-yl)-4-chlorophenyl)-2-methyl-3-fluoro-4-((3S,5R)-3,4,5-trimethylpiperazin-1-yl)benzamide Dihydrochloride], the IC50 (Mus musculus, C3H 10T1/2, 24 h) is reported as 0.2 nM.

`CC(C)c1cnc(-c2cc(NC(=O)c3cc(F)c(N4C[C@@H](C)N(C)[C@@H](C)C4)cc3Cl)ccc2Cl)[nH]1` [Example 191, N-(3-(5-isopropyl-1H-imidazol-2-yl)-4-chlorophenyl)-2-chloro-5-fluoro-4-((3S,5R)-3,4,5-trimethylpiperazin-1-yl)benzamide Dihydrochloride] was tested, and the IC50 (Mus musculus, C3H 10T1/2, 24 h) was 0.34 nM.

`CCN1[C@H](C)CN(c2ccc(C(=O)Nc3ccc(Cl)c(-c4ncc(C(C)C)[nH]4)c3)c(Cl)c2)C[C@@H]1C` [Example 192, N-(3-(5-isopropyl-1H-imidazol-2-yl)-4-chlorophenyl)-2-chloro-4-((3S,5R)-4-ethyl-3,5-dimethylpiperazin-1-yl)benzamide Dihydrochloride] gave an IC50 (Mus musculus, C3H 10T1/2, 24 h) of 0.52 nM.

Work on `C[C@@H]1CN(c2cc(Cl)c(C(=O)Nc3ccc(Cl)c(-c4ncc(C5CC5)[nH]4)c3)cc2F)C[C@H](C)N1C` [Example 193, N-(3-(5-cyclopropyl-1H-imidazol-2-yl)-4-chlorophenyl)-2-chloro-5-fluoro-4-((3S,5R)-3,4,5-trimethylpiperazin-1-yl)benzamide Dihydrochloride] yielded an IC50 (Mus musculus, C3H 10T1/2, 24 h) of 0.56 nM.

In the case of `CCN1[C@H](C)CN(c2ccc(C(=O)Nc3ccc(Cl)c(-c4ncc(C5CC5)[nH]4)c3)c(Cl)c2)C[C@@H]1C` [Example 194, N-(3-(5-cyclopropyl-1H-imidazol-2-yl)-4-chlorophenyl)-2-chloro-4-((3S,5R)-4-ethyl-3,5-dimethylpiperazin-1-yl)benzamide Dihydrochloride], the IC50 (Mus musculus, C3H 10T1/2, 24 h) is reported as 0.63 nM.

Compound `C[C@@H]1CN(c2ccc(C(=O)Nc3ccc(Cl)c(-c4nc5cscc5[nH]4)c3)c(C(F)(F)F)c2)C[C@H](C)N1C` [Example 200, N-(3-(1H-thieno[3,4-d]imidazol-2-yl)-4-chlorophenyl)-2-(trifluoromethyl)-4-((3S,5R)-3,4,5-trimethylpiperazin-1-yl) Benzamide] has an IC50 (24 hours) of 0.28 nM.
